Key:
m.3243A>G mutant cybrids [1] = experiment: Respirometry assay, oxygen consumption rate (Clark type oxygen electrode); format: cell-based, human; conditions: 5 µM; after 36 h of treatment; compared with vehicle mutant cells
Protocol: (§1) Previously established osteosarcoma-derived (143B.TK-) cybrid cell lines from patients, which bear either the m.3243A>G mutation in mt-tRNA^Leu(UUR) or the m.8344A>G mutation in mt-tRNA^Lys and controls ([Perli et al., 2014]; [Perli et al., 2016]; [Perli et al., 2020]) were used.
(§2) Oxygen consumption rate (OCR) of cybrids was evaluated with Clark type oxygen electrode (Hansatech Instruments, Norfolk, United Kingdom). After cybrid incubation with compounds at 5 µM concentration, both control and mutant cybrids were maintained in glucose medium for 36 h, then OCR was measured in intact cells (3 × 10^6) in 1 mL DMEM lacking glucose supplemented with […].

[2] = test system: control cells (WT and L-8344 cybrids); experiment: as above; format: cell-based, human; conditions: after 36 h, treated/vehicle ratio
Protocol: as §1, §2

[3] = test system: m.8344A>G mutant cybrids (H-8344); experiment: as above; format: cell-based, human; conditions: 5 µM; after 36 h of treatment; compared with vehicle mutant cells
Protocol: as §1, §2

Adult C57BL/6 male mice = experiment: Tolerability in animals (i.v., scores, body weight, grid-hanging test); format: in vivo
Protocol: Sixty adult C57BL/6 male mice were initially included in the study. Twenty animals were dedicated to in vivo/ex vivo biodistribution of the radiolabelled PMT ^64Cu-PMT. The evaluation was carried out at four time points: 1, 3, 24 and 48 h. Forty animals were dedicated to tolerability studies with increasing PMT concentration: 1, 5, 10 and 50 mg/kg PMT or saline, i. v. (n = 10 per group). […] Therefore, only three groups of ten animals were dedicated to the tolerability test, and fifty C57BL/6 male mice were employed for the current study in total. […] Due to the rapidity of death, and the hydrophobic character of the C-terminal region of the PMT (see the Discussion section), it is possible that PMT aggregates obstructed one or more small vessels, causing micro-infarctions in vital organs (e.g., lung, heart, brain).
Adult C57BL/6 male mice were used to determine the general tolerability of i. v. administered PMT and identify the Maximum Tolerated Dose (MTD). To this purpose, animals were divided into four groups (n = 10 each) and injected in a tail vein with either saline (controls) or PMT freshly dissolved in saline at three scalar doses (1, 5 or 10 mg/kg). Each group was randomly divided in two subgroups (n = 5 each). Blood ocular withdrawal was performed at 1 h and 48 h post-injection for each subgroup, respectively. During this procedure, animals were anaesthetized with isoflurane (2% in medical air) and monitored until awakening.
The effect of PMT administration was evaluated every 2 days by observation of the animals and application of the following criteria and scores (see Supplementary Table S1): body weight loss (score: 1–5); coat conditions (score: 1–3); dehydration (score: 1–3); respiration (score: 1–3); spontaneous behaviour (score: 0–5); reaction to handling (score: 0–3) (IACUC of the San Raffaele Research Institute and FELASA Glossary 2015 ([Fentener van Vlissingen et al., 2015]).
The observation was carried out for 2 weeks post peptide injection. At the end, all the animals underwent a grid-hanging test to measure muscular strength performances after PMT or saline treatment ([Gayi et al., 2018]).
After a period of habituation to the metallic grid, mice were placed individually on top of a metallic grid (40 × 40 cm, 1.3 cm square mesh) suspended 50 cm above an empty cage. The grid was turned upside down and latency to fall was measured up to a fixed limit of 600 s. Each mouse performed three trials and the longest holding time (s) among them was multiplied by the animal’s body weight (g) to calculate Holding impulse (g*s).
After the test, mice were sacrificed under general anaesthesia (4% isoflurane in medical air) by cardiac puncture to withdraw blood, brain, heart, liver, kidney, spleen, and lymph nodes, which were collected into tubes with buffered formalin and stored at +4°C.
Data on PMT tolerability in animals (i.e., body mass monitoring and grip-hanging test) are expressed as mean ± SD and analysed using one-way ANOVA corrected for multiple comparison Turkey test.

m.3243A>G mutant cybrids [4] = experiment: Cell viability in galactose medium (Trypan blue dye exclusion); format: cell-based, human; conditions: 5 µM; 24 h galactose medium; compared with non-treated mutant cells; at least three independent experiments
Protocol: as §1
(§3) Cybrid cells were cultured in Dulbecco’s modified Eagle’s medium (DMEM), supplemented with 4.5 g/L D-glucose, 10% foetal bovine serum (FBS), 2 mM L-glutamine, 50 μg/ML uridine, 100 U/mL penicillin, and […] (referred to as glucose medium) in a humidified atmosphere of 95% air and 5% CO2 at 37°C. For cell viability experiments, cells were grown either in glucose medium or in glucose-free DMEM, supplemented with 5 mM galactose, […], and 10% FBS (referred to as galactose medium). The reason for using the latter medium is that a pathological phenotype can be appreciated in cells growing on galactose, which forces cells to rely on mitochondrial respiration, but not in cells growing on glucose.
(§4) To assess growth capability, cells were harvested and seeded at 30 × 10^4 in 60 mm dishes in glucose medium for 24 h with the addition of one of the compounds. Cells were switched in glucose or galactose and, after 24 h, cell viability was measured by the Trypan blue dye exclusion assay. Cells were harvested with 0.25% trypsin and 0.2% EDTA, washed, suspended in PBS in the presence of Trypan blue solution (Sigma–Aldrich) at 1:1 ratio and counted using a hemocytometer. The number of viable cells in the galactose medium was expressed as a percentage of the number of cells in glucose medium.

[5] = test system: control cells (WT and L-8344 cybrids); experiment: as above; format: cell-based, human; conditions: WT and L-8344 cells; 24 h galactose medium
Protocol: as §1, §3, §4

[6] = test system: m.8344A>G mutant cybrids (H-8344); experiment: as above; format: cell-based, human; conditions: 5 µM; 24 h galactose medium; compared with non-treated mutant cells; at least three independent experiments
Protocol: as §1, §3, §4

SMILES: CC[C@@H](C)[C@@H](NC(=O)[C@@H](CC(C)C)NC(=O)[C@@H](C)NC(=O)[C@H](NC(=O)[C@@H](CCCNC(=N)N)NC(=O)[C@H]1CCCN1C(=O)[C@@H](CO)NC(=O)[C@@H](CC(C)C)NC(=O)[C@@H](Cc1ccccc1)NC(=O)[C@@H](CO)NC(=O)[C@@H](CCCCN)NC(=O)[C@H](N)CCCCN)[C@H](C)O)C(=O)N[C@H](CC(N)=O)C(=O)N[C@H](Cc1ccccc1)C(=O)N[C@H](CC(C)C)C(=O)N[C@@H](C(N)=O)C(C)C [PMT]
- Oxygen consumption rate (m.3243A>G mutant cybrids [1]): significant increase
- Oxygen consumption of control cells [2]: do not affect
- Oxygen consumption rate [3]: significant increase
- Tolerability after a single i.v. acute administration (Adult C57BL/6 male mice; 1, 5 and 10 mg/kg, wild-type mice, 14 days of observation): well tolerated
- Mice with decrease of body weight (score 4) (Adult C57BL/6 male mice; mouse, in vivo): 1/10
- Mice with mild tachypnoea (score 1) (Adult C57BL/6 male mice; mouse, in vivo): 5/10
- Mice with slight decrease of body weight (score 1) (Adult C57BL/6 male mice; mouse, in vivo): 5/10
- Mice with slight decrease of body weight (score 1–2) (Adult C57BL/6 male mice; mouse, in vivo): 5/10
- Outcome of the highest dose (Adult C57BL/6 male mice; mouse, in vivo): died immediately after the administration
- Safe dosage (Adult C57BL/6 male mice; mouse, in vivo, iv): up to 10 mg/kg
- Necropsy finding (Adult C57BL/6 male mice; mouse, in vivo, iv, 50 mg/kg): did not highlight any obvious macroscopic effect
- Cell viability (viable cells in galactose as % of glucose medium) (m.3243A>G mutant cybrids [4]): significant improvement of cell viability
- Cell viability of control cells [5]: do not affect
- Cell viability (viable cells in galactose as % of glucose medium) [6]: significant improvement of cell viability

Source: article PMC12336229, “Peptide-mimetics derived from leucyl-tRNA synthetase are potential agents for the therapy of mt-tRNA related diseases” (Frontiers in Pharmacology, 2025)
